Earlier results as cited in US11654140B2, “Treatment of ocular inflammatory diseases using laquinimod” (Active Biotech AB, priority 2012, dated 2023).

System: patients with a history of uveitis
Conditions: patients with a history of uveitis (Sergott, 2011); cited from earlier work

Compound: CCCCCCCCc1ccc(CCC(N)(CO)CO)cc1 [fingolimod]
- risk of macular edema: known to pose a risk of macular edema
